Results published in article PMC6332274, “In Silico Identification and in Vitro Activity of Novel Natural Inhibitors of Trypanosoma brucei Glyceraldehyde-3-phosphate-dehydrogenase” (Molecules, 2015).
Entries after “also recorded” stand apart in the source; their conditions may differ. Read-outs that look alike come from different tables or passages of the source. Each block holds one molecule with its values, some of them ahead of it.

Key:
[1] = test system: T. brucei rhodesiense (STIB 900); assay: In vitro antitrypanosomal activity against bloodstream forms; assay type: cell-based; settings: Trypanosoma brucei, read-out: T. brucei rhodesiense (STIB 900) IC50
Procedure: Compounds 1–5 were tested for their in vitro activity against bloodstream forms of T. brucei rhodesiense (causative agent of East African HAT).

recombinant TbGAPDH = target: T1, recombinant TbGAPDH (Trypanosoma brucei brucei, UniProt P22512); assay: TbGAPDH inhibition assay (spectrophotometric, NADH at 340 nm); assay type: biochemical; settings: for inhibition at 50 µM / % Inhibition at c = 50 µM: 50 µM test compound, n.i. = no inhibition at 50 µM
T1 construct: histidine tag (cleaved yes); made in house; host or cells: E. coli BL21 (DE3)
Procedure: To experimentally validate the predictions of the in silico screening, a spectrophotometric assay with recombinant TbGAPDH, measuring the increase of NADH during the conversion of 3-phosophoglyceraldehyde into 1,3-bisphosphoglycerate, was used. The increase of absorbance at 340 nm was measured for 1 min after the addition of the substrate. Initially, each test compound was added in a concentration of 50 µM and the slope of the resulting linear plots of absorbance vs. time compared to that of a control recorded in the absence of an inhibitor.
In order to determine the activity of TbGAPDH, a spectrophotometric assay was used as described before. For that purpose, the increasing amount of produced NADH was measured at 340 nm with a Hitachi U-2900 UV-VIS-Spectrophotometer as a linear indicator for the activity of the catalytic protein. The activity determined without the addition of an inhibitor was set to 100%; the measured inhibitions were calculated accordingly. The assay was performed at 30 °C, in a buffer of 0.1 M TEA, 0.1 M glycine and 0.1 M EDTA with varying concentrations of the tested compounds in a total volume of 1 mL containing 7.17 µg TbGAPDH, 1.5 mM NAD^+ and 0.5 mM G-3-P. The tested inhibitors were solved in DMSO, resulting in a final concentration of 0.1%–1% of solvent in the assay solution. […] Typically, 5–7 different concentrations were measured (each of them in triplicate) to determine IC50 values, which were calculated using the software “Prism 3.00” (GraphPad) via nonlinear regression analysis. The measured concentration/effect curves are shown in Supplementary Figures S14–S18.

[2] = Cytotoxicity against mammalian cells; assay type: cell-based, rat
[3] = test system: L6 rat skeletal myoblasts; assay: Cytotoxicity against mammalian cells; assay type: cell-based; settings: SI = IC50(cytotoxicity)/IC50(parasite), L6 vs T. brucei rhodesiense
TbGAPDH [4] = settings: most active inhibitor of natural origin previously known; cited from earlier work
TbGAPDH [5] = assay: Previously known TbGAPDH inhibitors (literature); assay type: biochemical, Trypanosoma brucei; settings: literature IC50 12 µM compared with IC50 of Compound 2
Procedure: In comparison to previously-known TbGAPDH inhibitors, the IC50 values of our compounds are quite low, so that these hits obtained from in silico screening can be considered quite strong inhibitors of the target enzyme. To our knowledge, the strongest TbGAPDH inhibitor known up to now is a synthetic adenosine derivative with an IC50 of […] [17].

[6] = 30 °C, 1.5 mM NAD+, 0.5 mM G-3-P
[7] = bloodstream forms, mean ± margin of deviation of two independent determinations
[8] = 30 °C, 1.5 mM NAD+, 0.5 mM G-3-P, 5–7 concentrations in triplicate, nonlinear regression, read-out: IC50 (TbGAPDH inhibition)
[9] = L6 rat skeletal myoblasts, mean ± margin of deviation of two independent determinations, read-out: Cytotoxicity (L6) IC50

T1 sequence (P22512 whole entry): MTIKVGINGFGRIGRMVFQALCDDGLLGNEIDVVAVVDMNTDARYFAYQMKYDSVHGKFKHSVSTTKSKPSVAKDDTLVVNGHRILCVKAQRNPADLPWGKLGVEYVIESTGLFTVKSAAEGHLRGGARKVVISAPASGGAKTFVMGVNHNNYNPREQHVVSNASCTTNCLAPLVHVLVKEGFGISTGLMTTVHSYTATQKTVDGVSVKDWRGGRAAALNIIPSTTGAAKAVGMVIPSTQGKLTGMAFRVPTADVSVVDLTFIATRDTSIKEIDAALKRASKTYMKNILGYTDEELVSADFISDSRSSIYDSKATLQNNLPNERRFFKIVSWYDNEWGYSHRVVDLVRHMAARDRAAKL

- inhibition at 50 µM (recombinant TbGAPDH; [6]): 44%
SMILES: CC(C)=CCc1c2c(c3occ(-c4ccc(O)c(O)c4)c(=O)c3c1O)C=CC(C)(C)O2 [NP-005755]

- % Inhibition at c = 50 µM (recombinant TbGAPDH; [6]): n.i.
SMILES: CCCCCCC/C=C/C=C/C(=O)NCCc1ccc(O)cc1 [NP-007496]

- % Inhibition at c = 50 µM (recombinant TbGAPDH; [6]): n.i.
SMILES: COc1cc(O)c2c(=O)c(-c3c(O)cc(O)c4c(=O)cc(-c5ccc(O)cc5)oc34)c(-c3ccc(O)cc3)oc2c1 [NP-008941]

- % Inhibition at c = 50 µM (recombinant TbGAPDH; [6]): n.i.
SMILES: COc1ccc(/C=C/C(=O)c2c(OC)cc(OC)c(CC=C(C)C)c2OC)cc1 [NP-010904]

- inhibition at 50 µM (recombinant TbGAPDH; [6]): 24%
SMILES: CC(C)=CCc1c(O)c2c(c3c1OC(C)(C)C=C3)OCC(c1ccc(O)cc1O)C2=O (stereo not drawn) [NP-012278]

- inhibition at 50 µM (recombinant TbGAPDH; [6]): 33%
SMILES: CC(C)=CCc1c(O)c(CC=C(C)C)c2occ(-c3ccc(O)c(O)c3)c(=O)c2c1O [NP-013070]

- % Inhibition at c = 50 µM (recombinant TbGAPDH; [6]): n.i.
SMILES: O=C(/C=C\c1ccc(O)cc1)NCCCCNC(=O)/C=C/c1ccc(O)cc1 [NP-015973]

- inhibition at 50 µM (recombinant TbGAPDH; [6]): 45%
SMILES: C/C=C(\NC(=O)CCCCCCCCCCCCCCC(=O)O)C(=O)O [NP-019430]

The remaining lines, values behind:

SMILES: Nc1nc(N)nc(Nc2ccc([As]3SCC(CO)S3)cc2)n1 (stereo not drawn) [Melarsoprol, reference compound]
- IC50 [1]: 0.005 ± 0.001 µM

SMILES: CC(C)=CCC/C(C)=C/Cc1ccc(O)c(C(=O)c2c(O)cc(C(=O)O)cc2C(=O)O)c1O [NP-011694 (1)]
- IC50 [1, 7]: 39.5 ± 3.1 µM
- IC50 ([2]; rat): 50.6 ± 3.8 µM
- SI (selectivity index) [3]: 1.3
- inhibition at 50 µM (recombinant TbGAPDH; [6]): > 50%
- IC50 (recombinant TbGAPDH; [8]): 24.6 ± 1.03 µM

SMILES: CC(C)=CCC/C(C)=C/Cc1ccc(O)c(C(=O)c2c(O)cc(C(=O)O)cc2C=O)c1O [NP-013296 (2)]
- IC50 [1, 7]: 41 ± 0.5 µM
- IC50 ([2]; rat): 48.7 ± 3.8 µM
- SI (selectivity index) [3]: 1.2
- SI (selectivity index) ([3]; listed as 2): not significantly selective
- IC50 (recombinant TbGAPDH; [8]): 4.73 ± 1.04 µM

SMILES: CCCC(=O)c1c(O)c(C)c(O)c(CC2=C(O)C(C)(C)C(O)=C(C(C)=O)C2=O)c1O [NP-013330 (3), flavaspidic acid AB]
- IC50 [1, 7]: 17.9 ± 1.6 µM
- IC50 [2, 9]: 54.2 ± 0.5 µM
- SI (selectivity index) [3]: 3.0
- SI (selectivity index) ([3]; listed as 3): not significantly selective; also recorded: three
- IC50 (recombinant TbGAPDH): 22 ± 1.03 µM

SMILES: CC(C)=CCC/C(C)=C/Cc1ccc(O)c(C(=O)c2c(O)cc(C=O)cc2C(=O)O)c1O [NP-013378 (4)]
- IC50 [1, 7]: 6.7 ± 2.2 µM
- IC50 ([2]; rat): 48.9 ± 4.1 µM
- SI (selectivity index) [3]: 7.3
- SI (selectivity index) ([3]; listed as 4): seven
- IC50 (recombinant TbGAPDH; [8]): 6.68 ± 1.04 µM

SMILES: Oc1cc(O)cc(CCC/C=C\CCCCCCCCCc2cc(O)cc(O)c2)c1 [NP-014428 (5)]
- IC50 [1, 7]: 29.3 ± 6.3 µM
- IC50 ([2]; rat): 15.5 ± 1.8 µM
- SI (selectivity index) [3]: 0.5
- IC50 (recombinant TbGAPDH; [8]): 22.8 ± 1.01 µM

SMILES: COc1cc([C@@H]2c3cc4c(cc3[C@H](O)[C@H]3COC(=O)[C@H]23)OCO4)cc(OC)c1OC [Podophyllotoxin, reference compound]
- IC50 [2, 9]: 0.019 ± 0.002 µM

SMILES: COC(=O)/C=C(\C)CC[C@@]1(C)[C@H](C)CC[C@@]2(C)C(C(=O)O)=CCC[C@H]12 [monomethyl kolavate]
- IC50 (TbGAPDH [4]): 12 µM
- fold less potent than Compound 2 (TbGAPDH IC50) (TbGAPDH [5]): about 2.5 fold
